Data taken from patent US7884234B2, “N-phenyloxamide derivatives” (Institute of Medicinal Molecular Design, inc., priority 2006, dated 2011).

How the values were obtained:
Type in all cases: biochemical
recombinant human PAI-1 [1] = biological target: T1, recombinant human PAI-1 (Homo sapiens, UniProt P05121); assay: Test Example 2: human PAI-1 inhibitory activity (tPA fluorogenic substrate assay, pH7.4 HEPES buffer); details: for IC50: pH7.4 HEPES buffer, obtained from Table 5 results; for inhibition at 3 µM: pH 7.4, read-out: Inhibition Rate of Human PAI-1 Activity (%)
T1 construct: purchased Molecular Innovations, Inc
T1 sequence (P05121 24-402): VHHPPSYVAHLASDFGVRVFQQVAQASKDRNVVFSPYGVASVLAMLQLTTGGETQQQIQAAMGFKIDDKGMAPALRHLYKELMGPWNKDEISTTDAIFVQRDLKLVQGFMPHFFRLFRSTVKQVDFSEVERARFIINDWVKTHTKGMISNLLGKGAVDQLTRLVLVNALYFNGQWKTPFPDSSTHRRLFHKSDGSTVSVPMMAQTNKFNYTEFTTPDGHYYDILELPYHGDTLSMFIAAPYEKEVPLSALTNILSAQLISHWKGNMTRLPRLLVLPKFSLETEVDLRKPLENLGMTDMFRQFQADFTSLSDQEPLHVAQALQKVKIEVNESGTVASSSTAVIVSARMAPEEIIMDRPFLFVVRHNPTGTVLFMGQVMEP
Procedure: (§1) Except using the pH7.4 HEPES buffer instead of pH7.5 Tris buffer, and the change of incubation time from 15 minutes to 10 minutes of the mixed solution added by two-chain tPA solution, tests were carried out similarly to the Test Example 1.
<Compotion of pH7.4 HEPES Buffer>
0.1% Polyethylene glycol 8,000 (Hampton Research Corporation)
2 mM Dimethyldecylphoshine oxide [Apo-10] (Fluka Corporation)

recombinant rat PAI-1 = biological target: T2, recombinant rat PAI-1 (Rattus norvegicus, UniProt P20961); assay: Test Example 3: rat PAI-1 inhibitory activity (tPA fluorogenic substrate assay, pH7.4 HEPES buffer); details: for IC50: pH7.4 HEPES buffer, obtained from Table 7 results; for inhibition at 10 µM / inhibition at 3 µM: pH 7.4, read-out: Inhibition Rate of Rat PAI-1 Activity (%)
T2 construct: purchased Molecular Innovations, Inc
T2 sequence (P20961 24-402): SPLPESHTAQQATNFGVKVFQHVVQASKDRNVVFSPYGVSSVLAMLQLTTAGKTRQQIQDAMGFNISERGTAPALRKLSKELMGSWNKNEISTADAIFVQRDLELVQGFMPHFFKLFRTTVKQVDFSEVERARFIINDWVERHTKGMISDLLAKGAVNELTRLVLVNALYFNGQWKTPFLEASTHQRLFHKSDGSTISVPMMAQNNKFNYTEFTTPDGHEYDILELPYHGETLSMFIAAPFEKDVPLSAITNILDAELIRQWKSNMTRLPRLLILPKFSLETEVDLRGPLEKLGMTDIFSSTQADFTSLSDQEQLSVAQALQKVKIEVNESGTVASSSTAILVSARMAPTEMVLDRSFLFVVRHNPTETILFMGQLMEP
Procedure: as §1

recombinant human PAI-1 [2] = biological target: T1, recombinant human PAI-1; assay: Test Example 4: human PAI-1 inhibitory activity (amount of PAI-1 bound to plate-coated tPA, ELISA); details: PAI-1 50 ng/ml bound to coated tPA, read-out: Inhibition Rate of Human PAI-1 Activity (%); for inhibition at 0.1 µM: compound 0.1 μM; for inhibition at 0.3 µM: compound 0.3 μM
Procedure: 100 μl of tPA solution where one-chain recombinant tPA (hereinafter refereed to as tPA; American diagnostica, inc.) diluted with Buffer A to achieve a concentration of 10 μg/ml was added to each well of 96-well plate (Nunc Maxisorp), incubated for one night at […] to coated with tPA. Then, after suction of tPA solution from the 96-well plate, rinsed successively with Buffer A and Buffer B.
To Buffer B, solutions of the present application compound dissolved with DMSO (final DMSO concentration: 0.2%) and recombinant human PAI-1 (Molecular Innovations, Inc.) were added and blended so that the final concentrations would be 0.1 to 3.0 μM and 50 ng/ml respectively, and were incubated for 15 minutes on ice. These mixed solutions were added to rinsed 96-well plates at 100 μl/well, and incubated for 60 minutes at room temperature. To prepare calibration curve, PAI-1 solutions without the present application compound (solutions where the final concentrations being 100, 50, 25, 12.5, 6.25, 3.13, 1.56 ng/ml PAI-1) were added at 100 μl/well, and were incubated for 60 minutes at room temperature, as standard.
After incubation, the reaction mixture was suction removed, and rinsed each well with Wash Buffer. Next, anti-human PAI-1 monoclonal antibody (PROGEN Inc.) diluted with Buffer C to be 3.0 μg/ml was added to the 96-well plate at 100 μl/well, and incubated for 1 hour at room temperature. After rinsing each well with Wash Buffer, alkaline phosphatase-labeled goat anti-mouse IgG (H+L) (Jackson ImmunoResearch, Inc.) diluted with Buffer D to be 0.12 μg/ml was added at 100 μl/well, and incubated for 1 hour at room temperature. After rinsing each well with Wash Buffer, 1.0 mg/ml p-Nitrophenyl Phosphate (SIGMA) was added to the 96-well plate at 100 μl/well to start the reaction. After 30 to 60 minutes, 25 μl of 0.5 N NaOH was added to stop the reaction, and the absorbance was measured at 405 nm using a multiplate reader (GENios; TECAN G.M.B.H.).
Based on the calibration curve prepared from the standard wells, amounts of PAI-1 bound to tPA in the wells treated with the present application compound were calculated, and the PAI-1 inhibition rates by the present application compounds were obtained by the following equation. [PAI-1 Inhibition Rate (%)]=[1-(amount of PAI-1 bound to tPA on the well treated with the present application compound)/(amount of PAI-1 bound to tPA on the well treated with PAI-1 solution without present application compound (solution with the final concentration of 50 ng/ml PAI-1)]×100 <Composition of Buffer A> 0.1 M Tris-HCl-150 150 mM NaCl pH 7.7 <Composition of Buffer B> 50 mM sodium phosphate 0.1 M NaCl 1 mM EDTA pH 6.6 <Composition of Buffer C> 50 mM sodium phosphate 100 mM NaCl pH 7.4 <Composition of Buffer D> 0.01 M Tris-HCl 0.25 M NaCl pH 8.0 <Composition of Wash Buffer> 0.05% Tween 20 0.1% BSA in Buffer A <Composition of p-Nitrophenyl Phosphate Solution> 1 M Diethanolamine 0.5 mM MgCl2 p-Nitrophenyl phosphate pH 9.8

Compound | IC50 (recombinant human PAI-1 [1]) [µM] | IC50 (recombinant rat PAI-1) [µM] | inhibition at 0.1 µM (recombinant human PAI-1 [2]) [%] | inhibition at 10 µM (recombinant rat PAI-1) [%] | inhibition at 3 µM (recombinant rat PAI-1) [%] | inhibition at 0.3 µM (recombinant human PAI-1 [2]) [%] | inhibition at 3 µM (recombinant human PAI-1 [1]) [%]
CC(C)(C)c1ccc(CN(C(=O)C(=O)O)c2ccc(-c3ccc(OC(F)(F)F)cc3)cc2)cc1 [compound 8, N-[4-(tert-butyl)benzyl]-N-[4′-(trifluoromethoxy)biphenyl-4-yl]oxamic Acid] | 1.63 | 3.13 | 0 |  |  |  | 
CC(C)(C)c1ccc(CN(C(=O)C(=O)O)c2cccc(-c3ccc(OC(F)(F)F)cc3)c2)cc1 [compound 9, N-[4-(tert-butyl)benzyl]-N-[4′-(trifluoromethoxy)biphenyl-3-yl]oxamic Acid] | 1.71 | 2.76 | 0 | > 99 |  |  | 
CC(C)(C)c1ccc(CN(C(=O)C(=O)O)c2cc(-c3ccc(OC(F)(F)F)cc3)cc(C(F)(F)F)c2)cc1 [compound 18, N-[4-(tert-butyl)benzyl]-N-[4′-(trifluoromethoxy)-5-(trifluoromethyl)biphenyl-3-yl]oxamic Acid] | 1.25 | 1.61 | 0 |  |  |  | 
CC(C)(C)c1ccc(CN(C(=O)C(=O)O)c2ccc(-c3ccc(OC(F)(F)F)cc3)cc2Cl)cc1 [compound 26, N-[4-(tert-butyl)benzyl]-N-[3-chloro-4′-(trifluoromethoxy)biphenyl-4-yl]oxamic Acid] | 1.17 | 2.16 |  |  |  |  | 
CC(C)(C)c1ccc(CN(C(=O)C(=O)O)c2cc(C(F)(F)F)ccc2-c2ccc(OC(F)(F)F)cc2)cc1 [compound 48, N-[4-(tert-butyl)benzyl]-N-[4′-(trifluoromethoxy)-4-(trifluoromethyl)biphenyl-2-yl]oxamic Acid] | 1.14 | 2.45 |  |  | 61 |  | 
CC(C)(C)c1ccc(CN(C(=O)C(=O)O)c2cccc(Oc3ccc(OC(F)(F)F)cc3)c2)cc1 [compound 52, N-[4-(tert-butyl)benzyl]-N-{3-[4-(trifluoromethoxy)phenoxy]phenyl}oxamic Acid] | 1.84 | 3.04 |  |  |  |  | 
CC(C)(C)c1ccc(CN(C(=O)C(=O)O)c2ccc(Oc3ccc(OC(F)(F)F)cc3)cc2C(F)(F)F)cc1 [compound 54, N-[4-(tert-butyl)benzyl]-N-{4-[4-(trifluoromethoxy)phenoxy]-2-(trifluoromethyl)phenyl}oxamic Acid] | 1.32 | 2.04 | 0 |  |  | 0 | 
Cc1ccc(N(Cc2ccc(C(C)(C)C)cc2)C(=O)C(=O)O)cc1-c1ccc(OC(F)(F)F)cc1 [compound 56, N-[4-(tert-butyl)benzyl]-N-[2-methyl-4′-(trifluoromethoxy)biphenyl-5-yl]oxamic Acid] | 1.4 | 1.87 | 4 | > 99 |  |  | 
CC(C)(C)c1ccc(COc2ccc(-c3ccc(OC(F)(F)F)cc3)cc2N(Cc2ccccc2)C(=O)C(=O)O)cc1 [compound 59, N-benzyl-N-{4-[4-(tert-butyl)benzyloxy]-4′-(trifluoromethoxy)biphenyl-3-yl}oxamic Acid] | 0.66 | 1.11 |  | > 99 | > 99 |  | > 99
CCCOc1ccc(N(Cc2ccc(C(C)(C)C)cc2)C(=O)C(=O)O)cc1-c1ccc(OC(F)(F)F)cc1 [compound 65, N-[4-(tert-butyl)benzyl]-N-[2-propoxy-4′-(trifluoromethoxy)biphenyl-5-yl]oxamic Acid] | 1.15 | 1.72 | 0 |  |  |  | > 99
CC(C)(C)c1ccc(CN(C(=O)C(=O)O)c2ccc(Cl)c(-c3ccc(OC(F)(F)F)cc3)c2)cc1 [compound 66, N-[4-(tert-butyl)benzyl]-N-[2-chloro-4′-(trifluoromethoxy)biphenyl-5-yl]oxamic Acid] | 1.14 | 1.55 | 6 |  |  |  | > 99
CCCOc1ccc(-c2ccc(OC(F)(F)F)cc2)cc1N(Cc1ccc(C(C)(C)C)cc1)C(=O)C(=O)O [compound 68, N-[4-(tert-butyl)benzyl]-N-[4-propoxy-4′-(trifluoromethoxy)biphenyl-3-yl]oxamic Acid] | 1.18 | 1.79 |  | > 99 |  |  | 
CCCCOc1ccc(-c2ccc(OC(F)(F)F)cc2)cc1N(Cc1ccc(C(C)(C)C)cc1)C(=O)C(=O)O [compound 69, N-[4-(tert-butyl)benzyl]-N-[4-butoxy-4′-(trifluoromethoxy)biphenyl-3-yl]oxamic Acid] | 0.88 | 1.28 | 0 | > 99 |  |  | 
COc1cc(OC)c(N(Cc2ccc(C(C)(C)C)cc2)C(=O)C(=O)O)cc1-c1ccc(OC(F)(F)F)cc1 [compound 70, N-[4-(tert-butyl)benzyl]-N-[2,4-dimethoxy-4′-(trifluoromethoxy)biphenyl-5-yl]oxamic Acid] | 1.32 | 2.3 | 0 | > 99 |  | 0 | 
CC(C)(C)c1ccc(CN(C(=O)C(=O)O)c2ccc(Cl)cc2-c2ccc(OC(F)(F)F)cc2)cc1 [compound 72, N-[4-(tert-butyl)benzyl]-N-[5-chloro-4′-(trifluoromethoxy)biphenyl-2-yl]oxamic Acid] | 1.06 | 2.14 |  |  |  |  | > 99
CCCCOc1ccc(N(Cc2ccc(C(C)(C)C)cc2)C(=O)C(=O)O)cc1-c1ccc(OC(F)(F)F)cc1 [compound 73, N-[4-(tert-butyl)benzyl]-N-[2-butoxy-4′-(trifluoromethoxy)biphenyl-5-yl]oxamic Acid] | 1.13 | 1.82 |  |  |  |  | > 99
CCCCCOc1ccc(-c2ccc(OC(F)(F)F)cc2)cc1N(Cc1ccc(C(C)(C)C)cc1)C(=O)C(=O)O [compound 74, N-[4-(tert-butyl)benzyl]-N-[4-pentyloxy-4′-(trifluoromethoxy)biphenyl-3-yl]oxamic acid] | 0.82 | 1.14 | 0 | > 99 |  |  | 
CCC(CC)Oc1ccc(N(Cc2ccc(C(C)(C)C)cc2)C(=O)C(=O)O)cc1-c1ccc(OC(F)(F)F)cc1 [compound 77, N-[4-(tert-butyl)benzyl]-N-[2-(1-ethylpropoxy)-4′-(trifluoromethoxy)biphenyl-5-yl]oxamic Acid] | 1.04 | 1.42 | 12 |  |  |  | > 99
CCCOc1ccc(N(Cc2ccc(C(C)(C)C)cc2)C(=O)C(=O)O)c(-c2ccc(OC(F)(F)F)cc2)c1 [compound 78, N-[4-(tert-butyl)benzyl]-N-[5-propoxy-4′-(trifluoromethoxy)biphenyl-2-yl]oxamic Acid] | 1.08 | 1.84 | 0 |  |  |  | > 99
